{
  "source": "patent US20040119048A1",
  "about": "“Process of making aqueous perborate bleach composition” (Unilever Home & Personal Care USA, Divison of Conopco, Inc., priority 2002, published 2004)",
  "experiment": "Iterative determination of perborate solubility in water and polyol/water (visual appearance, pH)",
  "type": "physicochemical",
  "description": "An iterative process was used to determine the extent of perborate solubilty in water and polyol/water. 1.5 g of Na perborate monohydrate was added either to 100 g of water (Table 1A) or to 90 g water and 10 g sorbitol (70% active) (Table 1B). The mixture was stirred until all of sodium perborate monohydrate was dissolved. A 0.5 g aliquot of sodium perborate monohydrate was then added to the solution while stirring and visually monitored to see if all the added sodium perborate monohydrate dissolves. If the aliquot dissolved, another 0.5 g of sodium perborate monohydrate would be added. This procedure was continued until the added perborate no longer appeared to dissolve.",
  "data": [
    {"smiles": "O.O=BO[O-].[Na+]", "note": "[Sodium Perborate monohydrate, sodium perborate monohydrate]", "values": [
      {"measurement": "solubility in water in the presence of polyol", "setting": "90 g water + 10 g sorbitol (70%)", "result": "up to 8.5 g"},
      {"measurement": "increase of perborate solubility by polyol", "setting": "aqueous environment, with polyol vs without", "result": "about 400%"}
    ]}
  ]
}
